Results on 5 compounds are retold here after patent US9220705B2, “Method of treating colorectal cancer” (priority 2013, dated 2015).

The test system of series [1] is 2008/C13*, LoVo/LoVo-OXP, LoVo MDR. The experiment in a line: MTT cytotoxicity, comparison over the Table 2 cell lines. Format: cell-based, human. The note with it: 2008 ovarian and LoVo colon sensitive cells. Here is the method: (§1) After 24 h, the medium was removed and replaced with a fresh one containing the compound to be studied, at the appropriate concentration, dissolved in 0.9% sodium chloride solution just before use. Triplicate cultures were established for each treatment. After 72 h, each well was treated with […] of a 5 mg mL^−1 MTT saline solution and, after 5 h of incubation, 100 μL of a sodium dodecylsulfate (SDS) solution in 0.01 M HCl were added. After an overnight incubation, the inhibition of cell growth induced by the tested complexes was determined by measuring the absorbance of each well at 570 nm using a BioRad 680 microplate reader. Mean absorbance for each drug dose was expressed as percentage of the control and plotted vs. drug concentration. Dose-response curves were fitted and IC50 values were calculated with four parameter logistic model (4PL).
(§2) A LoVo cell line retaining a multidrug resistance phenotype was also considered (LoVo MDR). Cross-resistance profiles were evaluated by means of the resistance factor (RF), which is defined as the ratio between the IC50 value for the resistant cells and that arising from the sensitive cells (Table 2).

Series [2] relates to panel of human tumor cell lines (A431, MCF-7, A375, HCT-15, SW480, CaCo-2, DLD-1). The experiment in a line: MTT cytotoxicity, comparison over the Table 1 panel. In kind it is cell-based. The conditions noted are these: average over seven cell lines of Table 1. The procedure:
as §1
The cytotoxicity was evaluated by means of the MTT test for 72 h treatment with increasing concentrations of the tested compounds.

For series [3], the system named is 2008 ovarian cancer cells. The experiment in a line: MTT cytotoxicity assay, cross-resistance profile. In kind it is cell-based, human. The conditions noted are these: 72 h.
Excerpt: (§3) Human breast (MCF-7) and colon (HCT-15, DDL1, SW480 and CaCo-2) carcinoma cell lines along with melanoma (A375) were obtained from the American Type Culture Collection (ATCC, Rockville, Md.). A431 are human cervical carcinoma cells kindly provided by Prof. F. Zunino (Molecular Pharmacology Unit, Experimental Oncology and Molecular Medicine, Istituto Nazionale dei Tumori, Milan, Italy). […] G. Marverti (Dept. of Biomedical Science, University of Modena, Italy). LoVo human colon-carcinoma cell line and its multidrug-resistant sublime (LoVo MDR) were kindly provided by Prof F. Maj one (Department of Biology of Padova University, Italy). […] Cell lines were maintained in the logarithmic phase at 37° C. in a 5% carbon dioxide atmosphere using the following culture media containing 10% fetal calf serum (Euroclone, Milan, Italy), antibiotics (50 units mL^−1 penicillin and 50 μg mL^−1 streptomycin), and 2 mM L-glutamine in: i) RPMI-1640 medium (Euroclone) for MCF-7, HCT-15, A431, DLD 1, 2008, and C13* cells; ii) F-12 HAM'S (Sigma Chemical Co.) for LoVo, LoVo MDR, and LoVo-OXP cells; iii) DMEM for A375 and SW 480 cells; and iv) MEM for CaCo-2 cells.
(§4) The growth inhibitory effect towards tumor cell lines was evaluated by means of the MTT (3-(4,5-dimethylthiazol-2-yl)-2,5-diphenyltetrazolium bromide) assay (Alley, M. C., et al., Cancer Res. 1988, 48, 589-601).
as §1, with “Briefly, depending upon the growth characteristics of the cell line, 3-8×10^3 cells well^−1, were seeded in 96-well microplates in growth medium (100 μL) and then incubated at 37° C. in a 5% carbon dioxide atmosphere. After 24” for “After 24”
as §2
(Tetrazolium assays rely on reduction of a dye to a coloured formazan, in cell work by metabolically active cells.)

Series [4] has as its system C13* cisplatin resistant ovarian cancer cells. The experiment in a line: MTT cytotoxicity assay, cross-resistance profile. In kind it is cell-based, human. The note with it: for IC50: C13*, 72 h, MTT; for R.F. (resistance factor): IC50 C13* / IC50 2008, cross-resistance with cisplatin.
Excerpt: as §3, §4
as §1, with “Briefly, depending upon the growth characteristics of the cell line, 3-8×10^3 cells well^−1, were seeded in 96-well microplates in growth medium (100 μL) and then incubated at 37° C. in a 5% carbon dioxide atmosphere. After 24” for “After 24”
as §2

The subject of series [5] is LoVo-OXP oxaliplatin resistant colon cancer cells. The experiment in a line: MTT cytotoxicity assay, cross-resistance profile. In kind it is cell-based, human. The note with it: for R.F. (resistance factor): IC50 LoVo-OXP / IC50 LoVo, cross-resistance with oxaliplatin; for IC50: LoVo-OXP, 72 h, MTT.
Excerpt: as §3, §4
as §1, with “Briefly, depending upon the growth characteristics of the cell line, 3-8×10^3 cells well^−1, were seeded in 96-well microplates in growth medium (100 μL) and then incubated at 37° C. in a 5% carbon dioxide atmosphere. After 24” for “After 24”
as §2

Series [6] relates to LoVo MDR multidrug resistant colon carcinoma subline. Briefly: MTT cytotoxicity assay, cross-resistance profile. Format: cell-based, human. The conditions noted are these: for R.F. (resistance factor): IC50 LoVo-MDR / IC50 LoVo; for IC50: LoVo-MDR, 72 h, MTT.
Excerpt: as §3, §4
as §1, with “Briefly, depending upon the growth characteristics of the cell line, 3-8×10^3 cells well^−1, were seeded in 96-well microplates in growth medium (100 μL) and then incubated at 37° C. in a 5% carbon dioxide atmosphere. After 24” for “After 24”
as §2
In Table 2 are also reported the results obtained in a multidrug resistant (MDR) colon carcinoma subline, LoVo MDR, in which the resistance to doxorubicin, a drug belonging to the MDR spectrum, is associated with an overexpression of multi-specific drug transporters, such as the 170 kDa P-glycoprotein (P-gp) (Wersinger, C., et al., Amino Acids 2000, 19, 667-685). It is well known that acquired MDR, whereby cells become refractory to multiple drugs, poses most important challenge to the success of anticancer chemotherapy.

For series [7], the system named is MCF-7. The experiment in a line: MTT cytotoxicity assay, 72 h. In kind it is cell-based, human. The note with it: MCF-7, breast.
Excerpt: as §3, §4
as §1, with “Briefly, depending upon the growth characteristics of the cell line, 3-8×10^3 cells well^−1, were seeded in 96-well microplates in growth medium (100 μL) and then incubated at 37° C. in a 5% carbon dioxide atmosphere. After 24” for “After 24”
(§5) Compound 1 was prepared for the first time almost twenty years ago however, until now, it had been tested (both in vitro and in vivo) only in a limited number of tumor cell lines (Hoeschele, J. D., et al., J. Med. Chem. 1994, 37, 2630-2636 and Shamsuddin, S., et al., J. Inorg. Biochem. 1996, 61, 291-301). The Pt(II) and Pt(IV) complexes containing isomeric forms of diaminocyclohexane, [PtCl2(cis-1,4-DACHA](1), [PtCl2(1R,2R-DACH)] (2), [Pt(OXA)(cis-1,4-DACH)] (3), cis,trans,cis-[Pt^IVCl2(OH)2(cis-1,4-DACH)] (4), cis,trans,cis-[Pt^IVCl2(DCA)2(cis-1,4-DACH)] (5), [Pt(CBDCA)(cis-1,4-DACH)] (6), cis,trans,cis-[Pt^IV(OXA)(OH)2(cis-1,4-DACH)] (7), and cis,trans,cis-[Pt^IV(OXA)(DCA)2(cis-1,4-DACH)] (8) were evaluated for their cytotoxic activity towards a panel of human tumor cell lines including cervical (A431), breast (MCF-7), cancers along with a melanoma (A375) and 4 different colon cancer cell lines corresponding to different stages of the disease progression (HCT-15, SW480, CaCo-2, DLD-1). The cytotoxicity was evaluated by means of the MTT test for 72 h treatment with increasing concentrations of the tested compounds.

Series [8] concerns HCT-15. The experiment in a line: MTT cytotoxicity assay, 72 h. In kind it is cell-based, human. The conditions noted are these: HCT-15, colon.
Excerpt: as §3, §4
as §1, with “Briefly, depending upon the growth characteristics of the cell line, 3-8×10^3 cells well^−1, were seeded in 96-well microplates in growth medium (100 μL) and then incubated at 37° C. in a 5% carbon dioxide atmosphere. After 24” for “After 24”
as §5

The test system of series [9] is A431. Briefly: MTT cytotoxicity assay, 72 h. The note with it: A431, cervix. Format: cell-based, human.
Excerpt: as §3, §4
as §1, with “Briefly, depending upon the growth characteristics of the cell line, 3-8×10^3 cells well^−1, were seeded in 96-well microplates in growth medium (100 μL) and then incubated at 37° C. in a 5% carbon dioxide atmosphere. After 24” for “After 24”
as §5

Series [10] has as its system SW480. The experiment in a line: MTT cytotoxicity assay, 72 h. In kind it is cell-based, human. The note with it: SW480, colon.
Excerpt: as §3, §4
as §1, with “Briefly, depending upon the growth characteristics of the cell line, 3-8×10^3 cells well^−1, were seeded in 96-well microplates in growth medium (100 μL) and then incubated at 37° C. in a 5% carbon dioxide atmosphere. After 24” for “After 24”
as §5

Series [11] concerns A375. Briefly: MTT cytotoxicity assay, 72 h. Format: cell-based, human. The note with it: A375, skin.
Excerpt: as §3, §4
as §1, with “Briefly, depending upon the growth characteristics of the cell line, 3-8×10^3 cells well^−1, were seeded in 96-well microplates in growth medium (100 μL) and then incubated at 37° C. in a 5% carbon dioxide atmosphere. After 24” for “After 24”
as §5

Series [12] concerns DLD-1. The experiment in a line: MTT cytotoxicity assay, 72 h. In kind it is cell-based, human. The conditions noted are these: DLD-1, colon.
Excerpt: as §3, §4
as §1, with “Briefly, depending upon the growth characteristics of the cell line, 3-8×10^3 cells well^−1, were seeded in 96-well microplates in growth medium (100 μL) and then incubated at 37° C. in a 5% carbon dioxide atmosphere. After 24” for “After 24”
as §5

Series [13] concerns LoVo colon cancer cells. Briefly: MTT cytotoxicity assay, cross-resistance profile. Format: cell-based, human. The conditions noted are these: 72 h.
Excerpt: Human breast (MCF-7) and colon (HCT-15, DDL1, SW480 and CaCo-2) carcinoma cell lines along with melanoma (A375) were obtained from the American Type Culture Collection (ATCC, Rockville, Md.). A431 are human cervical carcinoma cells kindly provided by Prof. F. Zunino (Molecular Pharmacology Unit, Experimental Oncology and Molecular Medicine, Istituto Nazionale dei Tumori, Milan, Italy). […] G. Marverti (Dept. of Biomedical Science, University of Modena, Italy). LoVo human colon-carcinoma cell line and its multidrug-resistant sublime (LoVo MDR) were kindly provided by Prof F. Maj one (Department of Biology of Padova University, Italy).
as §4
as §1, with “Briefly, depending upon the growth characteristics of the cell line, 3-8×10^3 cells well^−1, were seeded in 96-well microplates in growth medium (100 μL) and then incubated at 37° C. in a 5% carbon dioxide atmosphere. After 24” for “After 24”
as §2

Structures are written as SMILES.

Take `O=C1[O][Pt]2([NH]C3CCC(CC3)[NH]2)[O]C(=O)C12CCC2` [Compound 6, [SP-4-2-(cis)]-(1,4-cyclohexanediamine-N,N′)[cyclobutane-1,1-dicarboxylate-O,O′]platinum]: the “cytotoxic activity towards sensitive lines compared with reference drugs” value in series [1] was “less effective than oxaliplatin and cisplatin”. The “average cytotoxic activity compared with reference drugs” value in [2] was “lower than oxaliplatin and cisplatin”.

Take `O=C([O][Pt]1([Cl])([Cl])([O]C(=O)C(Cl)Cl)[NH][C@H]2CC[C@H](CC2)[NH]1)C(Cl)Cl` [Compound 5, (OC-6-33)-dichloro(cis-1,4-cyclohexanediamine-N,N′)bisdichloroacetateplatinum]: the “cytotoxic activity towards sensitive lines compared with reference drugs” value in [1] is “better than cisplatin and similar to oxaliplatin”. Moreover, the “average cytotoxic activity compared with reference drugs” value in series [2] was “rather similar to oxaliplatin”.

As for `O=C1[O][Pt]2([NH][C@H]3CC[C@H](CC3)[NH]2)[O]C1=O` [Compound 3, [SP-4-2-(cis)]-(1,4,cyclohexanediamine-N,N′)[ethanedioato(2)-O,O^1]platinum], the “cytotoxic activity towards sensitive lines compared with reference drugs” value in series [1] is “less effective than oxaliplatin and cisplatin towards ovarian sensitive cell line and rather similar to cisplatin against LoVo colon cancer cells”. The “average cytotoxic activity compared with reference drugs” value in series [2] was “lower than that of oxaliplatin and comparable to that of compound 2 and cisplatin”.

`O=C1[O][Pt]2([OH])([OH])([NH]C3CCC(CC3)[NH]2)[O]C1=O` [Compound 7, (OC-6-33)-[ethanedioato(2)-O,O′](cis-1,4-cyclohexanediamine-N,N′)dihydroxyplatinum]: the IC50 is 59.5 ± 3.64 µM in [3]; 78.7 ± 4.6 µM in series [4]; 66.9 ± 5.12 µM in series [5]; 69.4 ± 4.83 µM in [6]; 112 ± 9.52 µM in series [7]; 72.1 ± 4.74 µM in [8]. Further, the IC50 is 59.5 ± 3.64 µM in series [9]; 69.4 ± 11.5 µM in series [10]; 75.1 ± 6.54 µM in series [11]; 82.2 ± 5.54 µM in [12]; 61.2 ± 5.51 µM in series [13]. Also, the entries for the “R.F. (resistance factor)” value in series [4], in series [5] and in [6] were 1.3, 1.1 and 1.1, respectively. Also, the “cytotoxic activity towards sensitive lines compared with reference drugs” value in series [1] was “less effective than oxaliplatin and cisplatin”.

Regarding `O=C1[O][Pt]2([O]C(=O)C(Cl)Cl)([O]C(=O)C(Cl)Cl)([NH]C3CCC(CC3)[NH]2)[O]C1=O` [Compound 8, (OC-6-33)-[ethanedioato(2)-O,O′](cis-1,4-cyclohexanediamine-N,N′)bisdichloroacetateplatinum], the IC50 was 11.1 ± 3.28 µM in [3]; 9.12 ± 2.79 µM in series [4]; 11.1 ± 3.05 µM in [5]; 11.9 ± 3.33 µM in [6]; 12.6 ± 2.47 µM in series [7]; 13.7 ± 3.81 µM in [8]. Further, the IC50 in [9] came to 7.41 ± 2.11 µM; in series [10], 10.6 ± 2.01 µM; in series [11] it was 4.99 ± 1.15 µM; in [12], 8.26 ± 3.24 µM; in [13], 9.08 ± 2.16 µM. The “R.F. (resistance factor)” value in [4] is 0.8; in [5], 1.2; in series [6], 1.3. In addition, in series [1], the “cytotoxic activity towards sensitive lines compared with reference drugs” value was “lower than cisplatin and oxaliplatin in ovarian sensitive cancer cells, similar than cisplatin against colon sensitive cells”.

A word on the IC50: it is the point on the concentration scale where inhibition reaches its midpoint. Read a high IC50 as weaker potency.
